Measurements: patent publication US10870646B2, “Oxazolidinones and pharmaceutical compositions thereof for treating bacterial infections, including infection of Mycobacterium tuberculosis” (University of St. Thomas, priority 2017, dated 2020)
≈ marks a conversion by molar mass, not a printed value. Like-named read-outs stand apart in the source and are kept apart here.

Experiments:
[1] = tested on: Mycobacterium tuberculosis; settings: cited from earlier work; for MIC90: Mycobacterium tuberculosis, strain not stated, Kaushik et al. 2015 cited after the table
[2] = tested on: Enterococcus faecalis; test: MIC90 broth microdilution; format: cell-based; settings: for MIC90: Enterococcus faecalis
[3] = tested on: Staphylococcus aureus; test: MIC90 broth microdilution; format: cell-based; settings: for MIC90: Staphylococcus aureus
[4] = tested on: S. aureus; format: cell-based, Staphylococcus aureus
[5] = tested on: Mycobacterium tuberculosis H37Rv; test: MIC90 broth macrodilution; format: cell-based
[6] = tested on: Mtb H37Rv; test: Minimum bactericidal concentration (MBC99.9); format: cell-based, Mycobacterium tuberculosis
[7] = tested on: Mtb; test: Checkerboard titration assay (drug-drug interaction); format: cell-based, Mycobacterium tuberculosis; settings: combined with isoniazid or rifampicin
[8] = tested on: Pseudomonas aeruginosa; test: MIC90 broth microdilution; format: cell-based; settings: for MIC90: Pseudomonas aeruginosa
[9] = tested on: Klebsiella pneumoniae; test: MIC90 broth microdilution; format: cell-based; settings: for MIC90: Klebsiella pneumoniae
[10] = tested on: E. faecalis; format: cell-based, Enterococcus faecalis
[11] = tested on: E. faecalis; test: Checkerboard titration assay (drug-drug interaction); format: cell-based, Enterococcus faecalis; settings: combined with biapenem, faropenem and tebipenem
[12] = tested on: S. aureus; test: as above; format: cell-based, Staphylococcus aureus; settings: combined with biapenem, faropenem and tebipenem
[13] = tested on: S. aureus; test: Minimum bactericidal concentration (MBC99.9); format: cell-based, Staphylococcus aureus; settings: up to 8 times MIC90
[14] = tested on: Acinetobacter baumannii ATCC 19606; test: MIC90 broth microdilution; format: cell-based; settings: ATCC19606
[15] = tested on: Acinetobacter baumannii ACBA; test: MIC90 broth microdilution; format: cell-based
[16] = tested on: Mycobacterium avium; test: MIC90 broth microdilution; format: cell-based; settings: for MIC90: Mycobacterium avium
[17] = tested on: E. faecalis; test: Minimum bactericidal concentration (MBC99.9); format: cell-based, Enterococcus faecalis; settings: up to 8 times MIC90
[18] = tested on: Acinetobacter baumannii 6M-1b; test: MIC90 broth microdilution; format: cell-based
[19] = tested on: Mycobacterium abscessus; test: MIC90 broth microdilution; format: cell-based; settings: for MIC90: Mycobacteroides abscessus
[20] = tested on: Enterobacter cloacae; test: MIC90 broth microdilution; format: cell-based; settings: for MIC90: Enterobacter cloacae
[21] = tested on: S. aureus; settings: Zurenko et al. 1996; cited from earlier work
[22] = Mycobacterium tuberculosis H37Rv, read-out: MIC90
[23] = Acinetobacter baumannii ATCC 19606, read-out: MIC90
[24] = Acinetobacter baumannii ACBA, patient isolate
[25] = Acinetobacter baumannii ACBA, patient isolate, read-out: MIC90
[26] = Mycobacterium abscessus, read-out: MIC90
[27] = Acinetobacter baumannii 6M-1b, environmental isolate

In the case of `C[C@@H](O)[C@H]1C(=O)N2C(C(=O)[O-])=C(SC3Cn4cnc[n+]4C3)[C@H](C)[C@H]12` (some centres unmarked) [Biapenem], the MIC90 [1] is listed as 2.5 to 5.0 µg/mL, the MIC90 ([2]; read-out: MIC90) is listed as 0.25 to 0.5 µg/mL (≈ 0.713 to 1.43 µM) and the MIC90 ([3]; read-out: MIC90) is listed as 0.007 to 0.015 µg/mL (≈ 0.02 to 0.0428 µM).
For `CC(=O)NC[C@H]1CN(c2ccc3c(c2)Oc2ccccc2O3)C(=O)O1` [Compound T145], the “selection of spontaneous resistant mutants” value [4] was “failed to produce distinct colonies”, the MIC90 ([5]; Mycobacterium tuberculosis, H37RV) was 0.5 to 1 µg/mL (≈ 1.47 to 2.94 µM) and the “bactericidal or bacteriostatic activity” value ([6]; Mtb, 1, 2, 4 and 8 times MIC90) was “bactericidal activity”. The MBC ([6]; Mycobacterium tuberculosis, Mtb H37Rv) was 2 µg/mL (≈ 5.88 µM), the “drug-drug interaction (synergy, indifference, antagonism)” value [7] was “indifferent” and the “activity against growth (in words)” value [8] was “no activity”. The MIC90 [8] was > 64 µg/mL, the “activity against growth (in words)” value [9] was “no activity” and the MIC90 [9] was > 64 µg/mL. The “selection of spontaneous resistant mutants” value [10] was “failed to produce distinct colonies”, the “drug-drug interaction (synergy, indifference, antagonism)” value [11] was “indifferent” and the “drug-drug interaction (synergy, indifference, antagonism)” value [12] was “indifferent”. For the same compound, the “activity against growth (in words)” value [2] was “potent activity”, the MIC90 [2] was 0.25 to 0.5 µg/mL (≈ 0.735 to 1.47 µM) and the “bactericidal or bacteriostatic activity” value [13] was “bacteriostatic”. For the same compound, the MIC90 ([14]; Acinetobacter baumannii) was 32 to 64 µg/mL (≈ 94 to 188 µM), the MIC90 [15] was >64 µg/mL and the MIC90 ([15]; Acinetobacter baumannii) was > 64 µg/mL. The “activity against growth (in words)” value [16] was “no activity”, the MIC90 [16] was > 64 µg/mL and the “activity against growth (in words)” value [3] was “potent activity”. The MIC90 [3] was 0.5 to 1 µg/mL (≈ 1.47 to 2.94 µM), the “bactericidal or bacteriostatic activity” value [17] was “bacteriostatic” and the MIC90 [18] was 0.25 to 0.50 µg/mL. For the same compound, the MIC90 ([18]; Acinetobacter baumannii, 6M1B) was 0.25 to 4 µg/mL (≈ 0.735 to 11.8 µM), the “activity against growth (in words)” value [19] was “no activity” and the MIC90 [19] was > 64 µg/mL. The “activity against growth (in words)” value [20] was “no activity” and the MIC90 [20] was > 64 µg/mL.
In the case of `COc1cccc2c1Oc1ccc(N3C[C@H](CNC(C)=O)OC3=O)cc1O2` [Compound T197, (S)—N-((3-(6-methoxydibenzo[b,e][1,4]dioxin-2-yl)-2-oxooxazolidin-5-yl)methyl)acetamide], the MIC90 [5, 22] is reported as 8 to 16 µg/mL (≈ 21.6 to 43.2 µM), the MIC90 ([8]; read-out: MIC90) is reported as > 64 µg/mL and the MIC90 ([9]; read-out: MIC90) is reported as > 64 µg/mL. The MIC90 ([2]; read-out: MIC90) was 8 to 16 µg/mL (≈ 21.6 to 43.2 µM), the MIC90 [14, 23] was > 64 µg/mL and the MIC90 [15, 24] was >64 µg/mL. For the same compound, the MIC90 [15, 25] was > 64 µg/mL, the MIC90 ([16]; read-out: MIC90) was > 64 µg/mL and the MIC90 ([3]; read-out: MIC90) was 16 to 32 µg/mL (≈ 43.2 to 86.4 µM). The MIC90 [19, 26] was > 64 µg/mL and the MIC90 ([20]; read-out: MIC90) was > 64 µg/mL.
For `C[C@@H](O)[C@H]1C(=O)N2C(C(=O)O)=C([C@H]3CCCO3)S[C@H]12` [Faropenem], the MIC90 [1] is given as 2.5 to 5.0 µg/mL, the MIC90 ([2]; read-out: MIC90) is given as 0.25 to 0.5 µg/mL (≈ 0.876 to 1.75 µM) and the MIC90 ([3]; read-out: MIC90) is given as 0.015 to 0.03 µg/mL (≈ 0.0526 to 0.105 µM).
In the case of `CC(=O)NC[C@H]1CN(c2ccc(N3CCOCC3)c(F)c2)C(=O)O1` [Linezolid, reference compound], the MIC90 [5, 22] is listed as 0.2 to 2 µg/mL (≈ 0.593 to 5.93 µM), the MIC90 of linezolid ([1]; Mtb, Rodriguez et al. 2002) is listed as 0.5 to 2.0 µg/mL and the MIC90 ([8]; read-out: MIC90) is listed as > 64 µg/mL. The MIC90 ([9]; read-out: MIC90) was 16 to 32 µg/mL (≈ 47.4 to 94.9 µM), the MIC90 ([2]; read-out: MIC90) was 1 to 2 µg/mL (≈ 2.96 to 5.93 µM) and the MIC90 [14, 23] was > 64 µg/mL. For the same compound, the “bactericidal or bacteriostatic activity” value [21] was “bacteriostatic activity”, the MIC90 [15, 24] was >64 µg/mL and the MIC90 [15, 25] was > 64 µg/mL. For the same compound, the MIC90 ([3]; read-out: MIC90) was 1 to 2 µg/mL (≈ 2.96 to 5.93 µM), the MIC90 [18, 27] was 0.25 to 0.50 µg/mL and the MIC90 ([18]; Acinetobacter baumannii, 6M1B, Acinetobacter baumannii 6M-1b, environmental isolate, read-out: MIC90) was 0.25 to 4 µg/mL (≈ 0.741 to 11.9 µM). For the same compound, the MIC90 ([20]; read-out: MIC90) was > 64 µg/mL.
With `C[C@@H](O)[C@H]1C(=O)N2C(C(=O)O)=C(S[C@@H]3CN[C@H](C(=O)N(C)C)C3)[C@H](C)[C@H]12` [Meropenem, reference compound] the MIC90 [5, 22] was 4 to 8 µg/mL (≈ 10.4 to 20.9 µM), the MIC90 ([8]; read-out: MIC90) was 0.25 to 0.5 µg/mL (≈ 0.652 to 1.3 µM) and the MIC90 ([9]; read-out: MIC90) was < 0.06 µg/mL. For the same compound, the MIC90 ([2]; read-out: MIC90) was 4 to 8 µg/mL (≈ 10.4 to 20.9 µM), the MIC90 [14, 23] was > 64 µg/mL and the MIC90 [15, 24] was >64 µg/mL. The MIC90 [15, 25] was > 64 µg/mL, the MIC90 ([16]; read-out: MIC90) was > 64 µg/mL and the MIC90 ([3]; read-out: MIC90) was 0.06 to 0.13 µg/mL (≈ 0.156 to 0.339 µM). For the same compound, the MIC90 [18, 27] was 1 to 2 µg/mL, the MIC90 [19, 26] was > 64 µg/mL and the MIC90 ([20]; read-out: MIC90) was 0.13 to 0.25 µg/mL (≈ 0.339 to 0.652 µM).
For `C[C@@H](O)[C@H]1C(=O)N2C(C(=O)O)=C(SC3CN(C4=NCCS4)C3)[C@H](C)[C@H]12` [Tebipenem], the MIC90 [1] is listed as 1.25 to 2.5 µg/mL, the MIC90 ([2]; read-out: MIC90) is listed as 0.25 to 0.5 µg/mL (≈ 0.652 to 1.3 µM) and the MIC90 ([3]; read-out: MIC90) is listed as 0.03 to 0.06 µg/mL (≈ 0.0782 to 0.156 µM).
